According to patent publication US20250163104A1, “MACROCYCLIC IMMUNOMODULATORS” (priority 2021, published 2025):
Where a SMILES comes first, the peptide text is derived from it. Bridges are numbered along the chain shown (N, C = ends). [ ]: non-standard residue; d: D form. The star is where a group is joined. ξ: configuration not given here. Phe(4-COOH) = N[C@@H](Cc1ccc(C(=O)O)cc1)C(=O)O; Phe(2,4-F2) = N[C@@H](Cc1ccc(F)cc1F)C(=O)O; Bip = N[C@@H](Cc1ccc(-c2ccccc2)cc1)C(=O)O; Phe(3-Me) = Cc1cccc(C[C@H](N)C(=O)O)c1; aIle = CC[C@@H](C)[C@H](N)C(=O)O; 4Pal = N[C@@H](Cc1ccncc1)C(=O)O; Cha = N[C@@H](CC1CCCCC1)C(=O)O; Cit = NC(=O)NCCC[C@H](N)C(=O)O; Ile(3ξ) = CCC(C)[C@H](N)C(=O)O; dCha = N[C@H](CC1CCCCC1)C(=O)O; Thr(3ξ) = CC(O)[C@H](N)C(=O)O; Carboxymethyl = O=C(O)C*; Orn = NCCC[C@H](N)C(=O)O; Dab = NCC[C@H](N)C(=O)O; Dap = NC[C@H](N)C(=O)O

What follows are compounds tested against T1, human PD-1 / PD-L1-Ig binding on Jurkat cell line over-expressing human PD-1 (Jurkat-PD-1) (Homo sapiens, UniProt Q15116) (assay: Jurkat-PD-1 Cell Binding High-Content Screening Assay (CBA)). Conditions: Jurkat HPD1_PDL1 IC50, Jurkat-PD-1 cells, PE-labeled PD-L1-Ig 20 nM final.
T1 construct: expressed in transfected cells; host or cells: Jurkat
Format: cell-based
How it was run: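 PE-PD-L1-Ig 20 nM final; cells in DMEM/10% FCS; cpd pre-incubation 2 h, 37° C; ligand 1 h; PFA fix + Hoechst 33342; high-content imaging read-out.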

T1 sequence (Q15116 25-288): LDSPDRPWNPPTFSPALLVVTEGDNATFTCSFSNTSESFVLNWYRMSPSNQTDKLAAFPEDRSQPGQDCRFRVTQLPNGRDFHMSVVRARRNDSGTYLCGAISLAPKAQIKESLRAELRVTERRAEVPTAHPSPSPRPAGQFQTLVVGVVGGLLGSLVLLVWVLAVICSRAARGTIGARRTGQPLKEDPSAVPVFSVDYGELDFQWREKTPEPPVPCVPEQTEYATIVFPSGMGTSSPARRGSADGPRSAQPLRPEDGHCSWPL

Row | SMILES | IC50
1 | CC(C)C[C@H]1NC(=O)[C@H](CCCN)NC(=O)[C@H](CCCNC(N)=O)NC(=O)[C@H](Cc2ccc(-c3ccccc3)cc2)NC(=O)[C@H](C(C)C)NC(=O)[C@H](Cc2c[nH]c3ccccc23)NC(=O)[C@H](CC(=O)O)NC(=O)[C@H](Cc2ccc(C(=O)O)cc2)NC(=O)[C@H](Cc2ccncc2)NC(=O)CSC[C@@H](C(=O)N[C@@H](C)C(N)=O)NC(=O)[C@H]([C@@H](C)O)NC(=O)[C@H](C(C)C)NC(=O)[C@H](CC2CCCCC2)NC(=O)[C@H](Cc2c[nH]cn2)NC1=O [Compound 1598] | 9.9 nM

Same assay, conditions: Jurkat-PD-1 cells, PE-labeled PD-L1-Ig 20 nM final; read-out: Jurkat HPD1_PDL1 IC50

Row | IC50 | SMILES
2 | 13.6 nM | CCC[C@@H]1NC(=O)[C@H](Cc2c[nH]c3ccccc23)NC(=O)[C@H](CC(=O)O)NC(=O)[C@H](Cc2ccc(OCC(=O)O)cc2)NC(=O)[C@H](CN)NC(=O)CSC[C@@H](C(=O)N[C@@H](C)C(N)=O)NC(=O)[C@H]([C@@H](C)O)NC(=O)[C@H](C(C)C)NC(=O)[C@H](CC2CCCCC2)NC(=O)[C@H](CCN)NC(=O)[C@@H](CC(C)C)NC(=O)[C@H](CCCN)NC(=O)[C@H](C(C)C)NC(=O)[C@H](Cc2ccc(-c3ccccc3)cc2)NC1=O [Compound 1735]
3 | 26.1 nM | CC[C@H](C)[C@@H]1NC(=O)[C@H](Cc2ccc(-c3ccccc3)cc2)NC(=O)[C@H](C(C)C)NC(=O)[C@H](Cc2c[nH]c3ccccc23)NC(=O)[C@H](CC(=O)O)NC(=O)[C@H](Cc2ccc(O)cc2)NC(=O)[C@H](CC(N)=O)NC(=O)CSC[C@@H](C(=O)N[C@@H](C)C(N)=O)NC(=O)[C@H]([C@@H](C)O)NC(=O)[C@H](C(C)C)NC(=O)[C@H](CC2CCCCC2)NC(=O)[C@H](CCN)NC(=O)[C@@H](CC(C)C)NC(=O)[C@H](CCCN)NC1=O [Compound 1163] ({CH2CO}-NYDWV[Bip]I[Orn][dL][Dab][Cha]VTCA-NH2; thioether N-14)
4 | 5 nM | Cc1cccc(C[C@@H]2NC(=O)[C@H](CC(=O)O)NC(=O)[C@H](Cc3ccc(OCC(=O)O)cc3)NC(=O)[C@H](CN)NC(=O)CSC[C@@H](C(=O)N[C@@H](C)C(=O)O)NC(=O)[C@H]([C@@H](C)O)NC(=O)[C@H](C(C)C)NC(=O)[C@H](CC3CCCCC3)NC(=O)[C@H](CCN)NC(=O)[C@@H](CC(C)C)NC(=O)[C@H](CCCN)NC(=O)[C@H](CCCNC(N)=O)NC(=O)[C@H](Cc3ccc(-c4ccccc4)cc3)NC(=O)[C@H](C(C)C)NC2=O)c1 [Compound 1300]
5 | 347 nM | CC(C)C[C@H]1NC(=O)[C@H](CCCN)NC(=O)[C@H](CCC(=O)O)NC(=O)[C@H](Cc2ccc(-c3ccccc3)cc2)NC(=O)[C@H](C(C)C)NC(=O)[C@H](Cc2c[nH]c3ccccc23)NC(=O)[C@H](CC(=O)O)NC(=O)[C@H](Cc2ccc(OCC(=O)O)cc2)NC(=O)[C@H](CN)NC(=O)CSC[C@@H](C(=O)N[C@@H](C)C(N)=O)NC(=O)[C@H]([C@@H](C)O)NC(=O)[C@H](C(C)C)NC(=O)[C@H](Cc2ccc(F)cc2F)NC(=O)[C@H](CCN)NC1=O [Compound 1479] ({CH2CO}-[Dap]Y(Carboxymethyl)DWV[Bip]E[Orn][dL][Dab][Phe(2,4-F2)]VTCA-NH2; thioether N-14)
6 | 51.9 nM | CC[C@@H](C)[C@@H]1NC(=O)[C@H](Cc2ccc(-c3ccccc3)cc2)NC(=O)[C@H](C(C)C)NC(=O)[C@H](Cc2c[nH]c3ccccc23)NC(=O)[C@H](CC(=O)O)NC(=O)[C@H](Cc2ccc(C(=O)O)cc2)NC(=O)[C@H](Cc2ccc(OCC(=O)O)cc2)NC(=O)CSC[C@@H](C(=O)N[C@@H](C)C(N)=O)NC(=O)[C@H]([C@@H](C)O)NC(=O)[C@H](C(C)C)NC(=O)[C@H](CC2CCCCC2)NC(=O)[C@H](CCN)NC(=O)[C@@H](CC2CCCCC2)NC(=O)[C@H](CCCN)NC1=O [Compound 1626] ({CH2CO}-Y(Carboxymethyl)[Phe(4-COOH)]DWV[Bip][aIle][Orn][dCha][Dab][Cha]VTCA-NH2; thioether N-14)
7 | 7.6 nM | CCCC[C@H]1NC(=O)[C@H](CCCN)NC(=O)[C@H](CCC(=O)O)NC(=O)[C@H](Cc2ccc(-c3ccccc3)cc2)NC(=O)[C@H](C(C)C)NC(=O)[C@H](Cc2c[nH]c3ccccc23)NC(=O)[C@H](CC(=O)O)NC(=O)[C@H](Cc2ccc(C(=O)O)cc2)NC(=O)[C@H](Cc2ccncc2)NC(=O)CSC[C@@H](C(=O)N[C@@H](C)C(N)=O)NC(=O)[C@H]([C@@H](C)O)NC(=O)[C@H](C(C)C)NC(=O)[C@H](CC2CCCCC2)NC(=O)[C@H](CCN)NC1=O [Compound 1450]
8 | 34.3 nM | Cc1cccc(C[C@@H]2NC(=O)[C@H](CC(=O)O)NC(=O)[C@H](Cc3ccc(C(=O)O)cc3)NC(=O)[C@H](Cc3ccc(OCC(=O)O)cc3)NC(=O)CSC[C@@H](C(=O)N[C@H](Cc3ccc(O)cc3)C(=O)O)NC(=O)[C@H](CCCN)NC(=O)[C@H](C(C)C)NC(=O)[C@H](CC3CCCCC3)NC(=O)[C@H](CCN)NC(=O)[C@@H](CC(C)C)NC(=O)[C@H](CCN)NC(=O)[C@H](C(C)C)NC(=O)[C@H](Cc3ccc(-c4ccccc4)cc3)NC(=O)[C@H](C(C)C)NC2=O)c1 [Compound 2589] ({CH2CO}-Y(Carboxymethyl)[Phe(4-COOH)]D[Phe(3-Me)]V[Bip]V[Dab][dL][Dab][Cha]V[Orn]C[dY]-OH; thioether N-14)
9 | 8.5 nM | CC(C)C[C@H]1NC(=O)[C@H](CCCN)NC(=O)[C@H](CCCCN)NC(=O)[C@H](Cc2ccc(-c3ccccc3)cc2)NC(=O)[C@H](C(C)C)NC(=O)[C@H](Cc2c[nH]c3ccccc23)NC(=O)[C@H](CC(=O)O)NC(=O)[C@H](Cc2ccncc2)NC(=O)[C@H](CN)NC(=O)CSC[C@@H](C(=O)N[C@@H](C)C(N)=O)NC(=O)[C@H]([C@@H](C)O)NC(=O)[C@H](C(C)C)NC(=O)[C@H](CC2CCCCC2)NC(=O)[C@H](CCN)NC1=O [Compound 1389] ({CH2CO}-[Dap][4Pal]DWV[Bip]K[Orn][dL][Dab][Cha]VTCA-NH2; thioether N-14)
10 | 10.3 nM | Cc1cccc(C[C@@H]2NC(=O)[C@H](CC(=O)O)NC(=O)[C@H](Cc3ccc(OCC(=O)O)cc3)NC(=O)[C@H](CN)NC(=O)CSC[C@@H](C(=O)N[C@@H](CCN)C(N)=O)NC(=O)[C@H]([C@@H](C)O)NC(=O)[C@H](C(C)C)NC(=O)[C@H](CC3CCCCC3)NC(=O)[C@H](CCN)NC(=O)[C@@H](CC(C)C)NC(=O)[C@H](CCCN)NC(=O)[C@H](CCCNC(N)=O)NC(=O)[C@H](Cc3ccc(-c4ccccc4)cc3)NC(=O)[C@H](C(C)C)NC2=O)c1 [Compound 2010] ({CH2CO}-[Dap]Y(Carboxymethyl)D[Phe(3-Me)]V[Bip][Cit][Orn][dL][Dab][Cha]VTC[Dab]-NH2; thioether N-14)

Same assay, conditions: read-out: Jurkat HPD1_PDL1 IC50; Jurkat-PD-1 cells, PE-labeled PD-L1-Ig 20 nM final

Row | SMILES | IC50
11 | CCC(C)[C@@H]1NC(=O)[C@H](CC2CCCCC2)NC(=O)[C@H](CCN)NC(=O)[C@@H](CC(C)C)NC(=O)[C@H](CCCN)NC(=O)[C@H](C(C)CC)NC(=O)[C@H](Cc2ccc(-c3ccccc3)cc2)NC(=O)[C@H](C(C)CC)NC(=O)[C@H](Cc2c[nH]c3ccccc23)NC(=O)[C@H](CC(=O)O)NC(=O)[C@H](Cc2ccc(OCC(=O)O)cc2)NC(=O)[C@H](C(C)O)NC(=O)CSC[C@@H](C(=O)N2CCC[C@H]2C(N)=O)NC(=O)[C@H](CO)NC1=O (stereo partly drawn) [Compound 2583] ({CH2CO}-[Thr(3ξ)]Y(Carboxymethyl)DW[Ile(3ξ)][Bip][Ile(3ξ)][Orn][dL][Dab][Cha][Ile(3ξ)]SCP-NH2; thioether N-14) | 122 nM
